From patent US9878977B2, “N-((3,4,5-trimethoxystyryl)aryl)cinnamamide compounds as potential anticancer agents and process for the preparation thereof” (COUNCIL OF SCIENTIFIC & INDUSTRIAL RESEARCH, priority 2014, dated 2018)
Like-named read-outs stand apart in the source and are kept apart here.

Tests used:
MCF-7 = assay: SRB anti-proliferative assay, MCF-7; assay type: cell-based, Human
Description: (§1) The synthesized N-(3,4,5-trimethoxystyryl)aryl)cinnamamides were evaluated for their anti-proliferative activity in selected human cancer cell lines of breast cancer (MCF-7), prostate cancer (DU-145), lung cancer (Hop-62), cervical cancer (Hela), leukemia (K562), ovarian cancer (SK-OV-3), colon cancer (Colo-205), pancreatic (MAIPA-CA-2) by using sulforhodamine B (SRB) method (Vichai, V.; Kirtikara, K. Nat. Protoc. 2006, 1, 1112). […] CA-4 was used as the reference compound.

DU-145 = assay: SRB anti-proliferative assay, DU-145; assay type: cell-based, Human
Description: as §1

Hop-62 = assay: SRB anti-proliferative assay, Hop-62; assay type: cell-based, Human
Description: as §1

Hela = assay: SRB anti-proliferative assay, Hela; assay type: cell-based, Human; conditions: read-out: GI50 Hela
Description: as §1

K562 = assay: SRB anti-proliferative assay, K562; assay type: cell-based, Human
Description: as §1

SK-OV-3 = assay: SRB anti-proliferative assay, SK-OV-3; assay type: cell-based, Human
Description: as §1

Colo-205 = assay: SRB anti-proliferative assay, Colo-205; assay type: cell-based, Human
Description: as §1

MAIPA-CA-2 = assay: SRB anti-proliferative assay, MAIPA-CA-2; assay type: cell-based, Human; conditions: read-out: GI50 MAIPA-CA-2
Description: as §1

tubulin = conditions: reported in J. Med. Chem. 2008, 51, 6211; cited from earlier work
[1] = Homo sapiens, MCF7, read-out: GI50 MCF-7
[2] = Homo sapiens, DU-145, read-out: GI50 DU-145
[3] = Homo sapiens, HOP-62, read-out: GI50 Hop-62
[4] = Homo sapiens, K562, read-out: GI50 K562
[5] = Homo sapiens, SK-OV-3, read-out: GI50 SK-OV-3
[6] = Homo sapiens, COLO 205, read-out: GI50 Colo-205
[7] = MCF7, Human breast cancer, concentration of drug causing 50% inhibition of cell growth, read-out: GI50 MCF-7
[8] = DU-145, Human prostate cancer, concentration of drug causing 50% inhibition of cell growth, read-out: GI50 DU-145
[9] = HOP-62, Human lung cancer, concentration of drug causing 50% inhibition of cell growth, read-out: GI50 Hop-62
[10] = Human cervical cancer, concentration of drug causing 50% inhibition of cell growth
[11] = K562, Human leukemia, concentration of drug causing 50% inhibition of cell growth, read-out: GI50 K562
[12] = SK-OV-3, Human ovarian cancer, concentration of drug causing 50% inhibition of cell growth, read-out: GI50 SK-OV-3
[13] = COLO 205, Human colon cancer, concentration of drug causing 50% inhibition of cell growth, read-out: GI50 Colo-205
[14] = Human pancreatic, concentration of drug causing 50% inhibition of cell growth

SMILES	GI50 (MCF-7; [7]) [nM]	GI50 (DU-145; [8]) [nM]	GI50 (Hela; [10]) [µM]	GI50 (K562; [11]) [nM]	GI50 (SK-OV-3; [12]) [µM]	GI50 (Colo-205; [13]) [µM]	GI50 (MCF-7; [1]) [nM]	GI50 (DU-145; [2]) [nM]	GI50 (Hop-62; [3]) [µM]	GI50 (Hela; Homo sapiens) [µM]	GI50 (K562; [4]) [nM]	GI50 (SK-OV-3; [5]) [µM]	GI50 (Colo-205; [6]) [µM]	GI50 (MAIPA-CA-2; Homo sapiens) [µM]	GI50 (Hop-62; [9]) [µM]	GI50 (MAIPA-CA-2; [14]) [µM]	inhibits tubulin polymerization, compared with CA-4 (tubulin)
COc1ccc(C=Cc2cc(OC)c(OC)c(OC)c2)c(NC(=O)/C=C/c2ccc(F)c(F)c2)c1O [Compound 20aa, (E)-3-(3,4-Difluorophenyl)-N-(2-hydroxy-3-methoxy-6-(3,4,5-trimethoxystyryl)phenyl)acrylamide]	–	–	–	–	–	–	31	45	43.6	29.2	99	29.8	74.9	74	–	–	–
COc1ccc(C=Cc2cc(OC)c(OC)c(OC)c2)c(NC(=O)/C=C/c2cc(OC)c(OC)c(OC)c2)c1O [Compound 20ab, (E)-N-(2-Hydroxy-3-methoxy-6-(3,4,5-trimethoxystyryl)phenyl)-3-(3,4,5-trimethoxyphenyl)acrylamide]	–	–	–	–	–	–	79	95	24.8	14.9	28000	20.9	76	64.5	–	–	–
COc1ccc(C=Cc2cc(OC)c(OC)c(OC)c2)c(NC(=O)/C=C/c2cccc(O)c2)c1O [Compound 20g, (E)-N-(2-Hydroxy-3-methoxy-6-(3,4,5-trimethoxystyryl)phenyl)-3-(3-hydroxyphenyl)acrylamide]	–	–	–	–	–	–	63	70	0.082	0.0949	94	0.097	13.4	0.098	–	–	–
C#CCOc1cccc(/C=C/C(=O)Nc2c(C=Cc3cc(OC)c(OC)c(OC)c3)ccc(OC)c2O)c1 [Compound 20h, (E)-N-(2-Hydroxy-3-methoxy-6-(3,4,5-trimethoxystyryl)phenyl)-3-(3-(prop-2-ynyloxy)phenyl)acrylamide]	–	–	–	–	–	–	11600	96400	> 100	> 100	> 100000	> 100	> 100	> 100	–	–	–
COc1ccc(C=Cc2cc(OC)c(OC)c(OC)c2)c(NC(=O)/C=C/c2ccc(C(F)(F)F)cc2)c1O [Compound 20n, (E)-N-(2-Hydroxy-3-methoxy-6-(3,4,5-trimethoxystyryl)phenyl)-3-(4-(trifluoromethyl)phenyl)acrylamide]	–	–	–	–	–	–	83700	> 100000	> 100	> 100	58000	> 100	> 100	> 100	–	–	–
COc1ccc(C=Cc2cc(OC)c(OC)c(OC)c2)c(NC(=O)/C=C/c2ccc([N+](=O)[O-])cc2)c1O [Compound 20o, (E)-N-(2-Hydroxy-3-methoxy-6-(3,4,5-trimethoxystyryl)phenyl)-3-(4-nitrophenyl)acrylamide]	–	–	–	–	–	–	72	85	0.061	15.7	97	17	10.3	40.8	–	–	–
COc1ccc(/C=C/C(=O)Nc2c(C=Cc3cc(OC)c(OC)c(OC)c3)ccc(OC)c2O)cc1OC [Compound 20s, (E)-3-(3,4-Dimethoxyphenyl)-N-(2-hydroxy-3-methoxy-6-(3,4,5-trimethoxystyryl)phenyl)acrylamide]	56	60	7.5	94	0.099	0.099	–	–	–	–	–	–	–	–	0.09	29.9	–
COc1cc(/C=C/C(=O)Nc2c(C=Cc3cc(OC)c(OC)c(OC)c3)ccc(OC)c2O)ccc1O [Compound 20t, (E)-N-(2-Hydroxy-3-methoxy-6-(3,4,5-trimethoxystyryl)phenyl)-3-(4-hydroxy-3-methoxyphenyl)acrylamide]	60	72	0.09	93	0.096	0.098	–	–	–	–	–	–	–	–	0.079	0.098	–
COc1cc(/C=C/C(=O)Nc2c(C=Cc3cc(OC)c(OC)c(OC)c3)ccc(OC)c2O)ccc1[N+](=O)[O-] [Compound 20u, (E)-N-(2-Hydroxy-3-methoxy-6-(3,4,5-trimethoxystyryl)phenyl)-3-(3-methoxy-4-nitrophenyl)acrylamide]	95	75	0.099	96	7.9	0.096	–	–	–	–	–	–	–	–	0.084	23.5	–
COc1cc(/C=C/C(=O)Nc2c(C=Cc3cc(OC)c(OC)c(OC)c3)ccc(OC)c2O)ccc1N [Compound 20v, (E)-3-(4-Amino-3-methoxyphenyl)-N-(2-hydroxy-3-methoxy-6-(3,4,5-trimethoxystyryl)phenyl)acrylamide]	74	85	0.09	82	0.094	0.086	–	–	–	–	–	–	–	–	0.035	0.097	–
COc1ccc(/C=C/C(=O)Nc2c(C=Cc3cc(OC)c(OC)c(OC)c3)ccc(OC)c2O)cc1[N+](=O)[O-] [Compound 20y, (E)-N-(2-Hydroxy-3-methoxy-6-(3,4,5-trimethoxystyryl)phenyl)-3-(4-methoxy-3-nitrophenyl)acrylamide]	19400	64700	49.2	46800	52.6	> 100	–	–	–	–	–	–	–	–	71.3	> 100	–
COc1cc(/C=C\c2ccc(OC)c(N)c2)cc(OC)c1 [Compound S3, (Z)-5-(3,5-dimethoxystyryl)-2-methoxyaniline]	–	–	–	–	–	–	–	–	–	–	–	–	–	–	–	–	stronger than CA-4 by five folds

Now from value to molecule, other results behind:

GI50 (MCF-7; [7]) [nM]	GI50 (DU-145; [8]) [nM]	GI50 (Hela; [10]) [µM]	GI50 (K562; [11]) [nM]	GI50 (SK-OV-3; [12]) [µM]	GI50 (Colo-205; [13]) [µM]	SMILES	GI50 (MCF-7; [1]) [nM]	GI50 (DU-145; [2]) [nM]	GI50 (Hop-62; [3]) [µM]	GI50 (Hela; Homo sapiens) [µM]	GI50 (K562; [4]) [nM]	GI50 (SK-OV-3; [5]) [µM]	GI50 (Colo-205; [6]) [µM]	GI50 (MAIPA-CA-2; Homo sapiens) [µM]	GI50 (Hop-62; [9]) [µM]	GI50 (MAIPA-CA-2; [14]) [µM]	inhibits tubulin polymerization, compared with CA-4 (tubulin)
59500	> 100000	18.1	98	17.6	> 100	COc1cccc(/C=C/C(=O)Nc2c(C=Cc3cc(OC)c(OC)c(OC)c3)ccc(OC)c2O)c1 [Compound 20f, (E)-N-(2-Hydroxy-3-methoxy-6-(3,4,5-trimethoxystyryl)phenyl)-3-(3-methoxyphenyl)acrylamide]	–	–	–	–	–	–	–	–	65.4	93.9	–
83	85	0.0787	91	0.082	18	C=CCOc1cccc(/C=C/C(=O)Nc2c(C=Cc3cc(OC)c(OC)c(OC)c3)ccc(OC)c2O)c1 [Compound 20i, (E)-3-(3-(Allyloxy)phenyl)-N-(2-hydroxy-3-methoxy-6-(3,4,5-trimethoxystyryl)phenyl)acrylamide]	–	–	–	–	–	–	–	–	0.06	0.098	–
55500	54100	38.8	24900	62.6	> 100	COc1ccc(C=Cc2cc(OC)c(OC)c(OC)c2)c(NC(=O)/C=C/c2ccc(Cl)cc2)c1O [Compound 20q, (E)-3-(4-Chlorophenyl)-N-(2-hydroxy-3-methoxy-6-(3,4,5-trimethoxystyryl)phenyl)acrylamide]	–	–	–	–	–	–	–	–	79.4	> 100	–
66	83	24	23500	47.5	67.6	COc1ccc(C=Cc2cc(OC)c(OC)c(OC)c2)c(NC(=O)/C=C/c2ccc(F)cc2)c1O [Compound 20r, (E)-3-(4-Fluorophenyl)-N-(2-hydroxy-3-methoxy-6-(3,4,5-trimethoxystyryl)phenyl)acrylamide]	–	–	–	–	–	–	–	–	43	78.1	–
95	117	15.9	23700	1.8	> 100	COc1ccc(/C=C/C(=O)Nc2c(C=Cc3cc(OC)c(OC)c(OC)c3)ccc(OC)c2O)cc1O [Compound 20x, (E)-N-(2-hydroxy-3-methoxy-6-(3,4,5-trimethoxystyryl)phenyl)-3-(3-hydroxy-4-methoxyphenyl)acrylamide]	–	–	–	–	–	–	–	–	17.1	46.3	–
50	79	0.091	89	0.097	0.089	COc1ccc(/C=C/C(=O)Nc2c(C=Cc3cc(OC)c(OC)c(OC)c3)ccc(OC)c2O)cc1N [Compound 20z, (E)-3-(3-Amino-4-methoxyphenyl)-N-(2-hydroxy-3-methoxy-6-(3,4,5-trimethoxystyryl)phenyl)acrylamide]	–	–	–	–	–	–	–	–	0.044	14.3	–
